Assay results: US20010044404A1, “Cleaning process and composition” (3M Innovative Properties Company, priority 1995, published 2001)
Values belong to the molecule of their own block, whether it stands above or below them.

Experiments:
[1] = Paraffinic oil removal: solvating agent, then rinse in boiling solvent; settings: methyl caproate/dipropylene glycol di-n-butyl ether 30 seconds, boiling rinse 30 seconds
Procedure: The above-described test coupon was dipped into a paraffinic oil comprising a mixture of linear and branched hydrocarbons (DuoSeal Pump Oil, available from Sargent Welch), was immersed in mixed solvating agent comprising approximately 50% methyl caproate and 50% dipropylene glycol di-n-butyl ether for 30 seconds, and was then rinsed in boiling alkoxy-substituted perfluorocompound for 30 seconds. The percent oil removal was determined in the above-described manner.

[2] = Mineral oil removal from aluminum coupon, sonication in solvent; settings: sonicated 1 minute
Procedure: In the following Examples and Comparative Examples, the cleaning ability of the alkoxy-substituted perfluorocompounds used in the cleaning process of the invention was further evaluated. A 1.28 cm×1.28 cm×0.225 cm wire-wrapped, aluminum coupon was coated with white heavy mineral oil (available from Aldrich Chemical) by immersing the coupon in an oil-filled beaker. The initial amount of the oil on the coupon was determined by weighing it on an analytical balance to the nearest 0.1 mg. The coupon was immersed in a container of solvent and sonicated for 1 minute at the indicated temperature (see Table 3 below for the solvents and temperatures used). The coupon was then weighed again, and the results were recorded in Table 3 as percent oil removal.

[3] = Perfluoropolyether oil removal in solvent vapor; settings: Brayco 815Z; vapor over boiling liquid, 60 seconds
Procedure: The above-described aluminum coupon was dipped into Brayco 815Z perfluoropolyether oil (available from Castrol Inc., molecular weight of about 10,000) and then immersed in alkoxy-substituted perfluorocompound vapor (over the boiling liquid) for 60 seconds. The percent oil removal was determined in the above-described manner.

[4] = Rinse agent in co-solvent cleaning of solder flux; settings: solvating agent 1 minute at about 55° C., then 30 seconds in boiling solvent
Procedure: The ability of alkoxy-substituted perfluorocompounds to function as a rinse agent in a co-solvent cleaning process was evaluated. The above-described aluminum coupon was coated with solder flux (available from Alpha Metals as Alpha 611 rosin, mildly activated flux) by immersing the coupon into a flux-filled beaker. The flux-coated coupon was then dried using a forced air convection drier. The initial amount of the flux on the coupon was determined by weighing it on an analytical balance to the nearest 0.1 mg. The coupon was immersed in a container of a mixed solvating agent comprising approximately 50% methyl decanoate and 50% dipropylene glycol di-n-butyl ether and was sonicated for 1 minute at approximately 55° C. The coupon was then immersed for 30 seconds into alkoxy-substituted perfluorocompound which had been heated to its boiling point. The coupon was weighed again, and the results were recorded in Table 5 below as percent oil removed from the coupon.

[5] = Pump oil removal with boiling mixed terpenes/perfluorocompound mixture; settings: boiling mixture 40 volume % mixed terpenes, 60 volume % fluorinated component
Procedure: The above-described test coupon was dipped into DuoSeal Pump Oil (available from Sargent-Welch), was immersed in a boiling mixture of 40 volume % of a solvating agent comprising mixed terpenes having a boiling range of 243-274° C. and 60 volume % of alkoxy-substituted perfluorocompound (a cleaning composition of the invention), was cooled for 60 seconds, and was then immersed in mixture vapor for 30 seconds. The percent oil removal was determined in the above-described manner.

[6] = Pump oil removal in vapor of boiling n-C6H14/perfluorocompound mixture; settings: vapor of boiling 40 volume % n-C6H14, 60 volume % fluorinated component; 60 seconds
Procedure: (§1) The above-described test coupon was dipped into DuoSeal Pump Oil (available from Sargent-Welch) and was then immersed in the vapor of a boiling mixture of 40 volume % n-C6H14 and 60 volume % alkoxy-substituted perfluorocompound (a cleaning composition of the invention), for 60 seconds. The percent oil removal was determined in the above-described manner.

[7] = Pump oil removal with n-C6H14/perfluorocompound mixture at room temperature, ultrasonic; settings: 40 volume % n-C6H14, 60 volume % fluorinated component, 60 seconds
Procedure: as §1, with “in” for “in the vapor of”, “a” for “a boiling”, “invention)” for “invention),”, “seconds at room temperature with ultrasonic agitation.” for “seconds.”

[8] = Stability in the presence of base: aqueous NaOAc, fluoride ion measurement; assay type: physicochemical; settings: 10 g with 10 g 0.1M NaOAc, 110° C., 16 hours
Procedure: To assess hydrolytic stability, a ten gram sample of alkoxy-substituted perfluorocompound was combined with 10 g of 0.1M NaOAc and sealed in a 2.54 cm (internal diameter) by 9.84 cm Monel™ 400 alloy (66% nickel, 31.5% copper, and 1.2% iron and several minor components) tube (available from Paar Instrument Co. of Moline, Ill. as Part Number 4713cm). The tube was heated at 110° C. in a forced air convection oven for 16 hours. After cooling to room temperature, a 1 mL sample of the tube contents was diluted with 1 mL of total ionic strength adjustment buffer (TISAB, available from Orion Research, Inc., a mixture of 1,2-cyclohexylene dinitrilotetraacetic acid, deionized water, sodium acetate, sodium chloride, and acetic acid). The concentration of fluoride ion (resulting from any reaction of the perfluorocompound with the aqueous NaOAc) was measured using an Orion Model 720A Coulombmeter with a F-specific electrode which had been previously calibrated using 0.5 and 500 ppm F^− solutions. Based on the measured fluoride ion concentration, the rate at which HF had been generated by reaction of the aqueous NaOAc with the perfluorocompound was calculated.

[9] = Open cup flash point ASTM D1310-86; assay type: physicochemical
Procedure: (§2) Various properties were measured for C4F9OCH3, CHClFCF2OCH3, and blends of each ether compound with cosolvent, trans-1,2-dichloroethylene (hereinafter, t-DCE) or n-butyl bromide, at various weight ratios.

[10] = Closed cup flash point ASTM D3278-96; assay type: physicochemical
Procedure: as §2

[11] = Stability in the presence of acid (96% sulfuric acid, GLC); assay type: physicochemical; settings: neat ether; sulfuric acid as in Stability in the Presence of Acid section
Procedure: To assess hydrolytic stability under acidic conditions, C4F9OCH3 (15 g, 0.06 mole) was combined with sulfuric acid (10 g of 96% by weight, 0.097 mole) in a 50 mL flask containing a stir bar and fitted with a reflux condenser. The resulting mixture was stirred for 16 hours at room temperature, and then the resulting upper fluorochemical phase was separated from the resulting lower sulfuric acid phase. […] Chem. 49, 4007 (1984), which states that “[f]luorine atoms attached to carbon which also bears an alkyl ether group are known to be labile to electrophilic reagents. They are readily hydrolyzed in concentrated sulfuric acid, thus providing a route to some esters of fluoroacids.”

[12] = Solvency properties: largest normal hydrocarbon alkane soluble at 50 percent by volume
Procedure: A number of potential solvents were tested for their ability to dissolve hydrocarbons of increasing molecular weight according to the procedure described in U.S. Pat. No. 5,275,669 (Van Der Puy et al.), the description of which is incorporated herein by reference. The data shown in Table 1 were obtained by determining the largest normal hydrocarbon alkane which was soluble in a particular solvent at a level of 50 percent by volume. The numbers in the Table correspond with the carbon number of the largest alkane, e.g., “8” refers to octane. Measurements were made from room temperature up to the boiling point of the solvent. For comparative purposes, hydrofluorocarbons (HFCs) and perfluorocarbons (PFCs) were also tested using this method.
Using essentially the above-described method, the solvency properties of other alkoxy-substituted perfluorocompounds were tested at room temperature.

[13] = Ability to dissolve halogenated oils (miscibility); assay type: physicochemical; settings: room temperature
Procedure: The ability of alkoxy-substituted perfluorocompounds to dissolve several halogenated oils was determined by adding a measured amount of oil to alkoxy-substituted perfluorocompound until the resulting mixture became turbid or phase-split. […] The results (shown in Table 12) indicate that alkoxy-substituted perfluorocompounds have very high ability to dissolve halogenated oils. Thus, the perfluorocompounds can be used as carrier solvents for halogenated oils in the deposition of coatings of such oils on substrate surfaces.

[14] = Flash point testing ASTM D3278-89; assay type: physicochemical
Procedure: The alkoxy-substituted perfluorocompounds C4F9OCH3, C4F9OC2H5, and c-C6F11OCH3 were tested for flash point by the standard method defined by ASTM D3278-89.

[15] = Fluorinated oil removal from aluminum coupon; settings: Krytox 157FSM, room temperature
Procedure: Using essentially the same procedure as that described in Examples 8-10, the ability of the alkoxy-substituted perfluorocompounds to remove a fluorinated oil was evaluated. As in the previous Examples, a coupon was immersed in Krytox™ 157FSM perfluoropolyether oil having carboxylic acid end groups (available from DuPont), and the percent oil remaining after immersion in the solvent (at room temperature) was determined.

[16] = Mineral oil removal with boiling methyl decanoate/perfluorocompound mixture; settings: boiling mixture 40 volume % methyl decanoate, 60 volume % perfluorocompound
Procedure: The above-described test coupon was dipped in white heavy mineral oil (available from Aldrich Chemical), was immersed in a boiling single-phase mixture of 40 volume % of a solvating agent comprising essentially methyl decanoate and 60 volume % of alkoxy-substituted perfluorocompound (a cleaning composition of the invention) for 60 seconds, was cooled for 60 seconds, and was then immersed in mixture vapor for 30 seconds. The percent oil removal was determined in the above-described manner.

[17] = 20 weight % ether, 80 % n-butyl bromide
[18] = 30 weight % ether, 70 % n-butyl bromide
[19] = 50 weight % ether, 50 % n-butyl bromide
[20] = 80 weight % ether, 20 % n-butyl bromide
[21] = Brayco 815Z Perfluoropolyether (MW about 10,000)
[22] = Chlorotrifluoroethylene Fluid (Inland 41 Vacuum Pump Oil)
[23] = Fomblin AM-2001 Functionalized Perfluoropolyether

Molecule: FC(F)(F)C(F)(F)C(F)(F)C(F)(F)C(F)(F)C(F)(F)F [Example C6F14, C6F14, reference compound]
Percent Soil Removed [1]: 89.2% | percent oil removal ([2]; 23 ° C.): 54.9% | percent oil removal ([2]; 50 ° C.): 67.6% | Percent Soil Removed [3]: 92.9% | % Removed [4]: 51.9% | Percent Soil Removed [5]: 75.7% | Percent Soil Removed [6]: 73.8% | Percent Soil Removed [7]: 88.5%

Molecule: FC(C(F)C(F)(F)C(F)(F)F)C(F)(F)F (centres unmarked) [reference compound]
HF Generation Rate [8]: 42.9 µg/g/h

Molecule: FC(F)(Cl)C(F)(Cl)Cl [CF2ClCFCl2, reference compound]
percent oil removal ([2]; 23 ° C.): 98.9% | percent oil removal ([2]; 50 ° C.): 98.7%

Open Cup Flash Point (ASTM D1310-86) ([9]; 20 weight % ether, 80 % t-DCE): 80 (27) ° F. (° C.) | Open Cup Flash Point (ASTM D1310-86) ([9]; 50 weight % ether, 50 % t-DCE): 80 (27) ° F. (° C.) | Open Cup Flash Point (ASTM D1310-86) ([9]; 80 weight % ether, 20 % t-DCE): 85 (29) ° F. (° C.) | Open Cup Flash Point (ASTM D1310-86) ([9]; 100 weight % ether, 0 % t-DCE): 76 (24) ° F. (° C.) | Closed Cup Flash Point (ASTM D3278-96) [10, 17]: 50 (7) ° F. (° C.) | Closed Cup Flash Point (ASTM D3278-96) [10, 18]: 45 (10) ° F. (° C.) | Closed Cup Flash Point (ASTM D3278-96) [10, 19]: 45 (7) ° F. (° C.) | Closed Cup Flash Point (ASTM D3278-96) [10, 20]: 50 (10) ° F. (° C.) | Closed Cup Flash Point (ASTM D3278-96) ([10]; 100 weight % ether, 0 % n-butyl bromide, raised to 140° F. (60° C.)): 45 (7) ° F. (° C.) | Stability in Presence of Acid: conversion to ester [11]: 100% | Largest Carbon Number of Longest Hydrocarbon Alkane to Dissolve [12, 17]: 21 | Largest Carbon Number of Longest Hydrocarbon Alkane to Dissolve ([12]; 20 weight % ether, 80 % t-DCE): 27 | Largest Carbon Number of Longest Hydrocarbon Alkane to Dissolve [12, 18]: 21 | Largest Carbon Number of Longest Hydrocarbon Alkane to Dissolve [12, 19]: 20 | Largest Carbon Number of Longest Hydrocarbon Alkane to Dissolve ([12]; 50 weight % ether, 50 % t-DCE): 21 | Largest Carbon Number of Longest Hydrocarbon Alkane to Dissolve [12, 20]: 19 | Largest Carbon Number of Longest Hydrocarbon Alkane to Dissolve ([12]; 80 weight % ether, 20 % t-DCE): 19 | Largest Carbon Number of Longest Hydrocarbon Alkane to Dissolve ([12]; 100 weight % ether, 0 % n-butyl bromide): 18 | Largest Carbon Number of Longest Hydrocarbon Alkane to Dissolve ([12]; 100 weight % ether, 0 % t-DCE): 18
Molecule: COC(F)(F)C(F)Cl (centres unmarked) [CHClFCF2OCH3, 2-chloro-1,1,2-trifluoroethyl methyl ether, reference compound]

Molecule: FC(F)C(F)(F)C(F)(F)C(F)(F)C(F)(F)C(F)(F)F [Example C6F13H, C6F13H, reference compound]
percent oil removal ([2]; 23 ° C.): 71.7% | percent oil removal ([2]; 50 ° C.): 86.8% | % Removed [4]: 91.2%

Molecule: COC1(F)C(F)(F)C(F)(F)C(F)(F)C(F)(F)C1(F)F [c-C6F11OCH3]
Miscibility with solute [13, 21]: Miscible (greater than or equal to 50 percent by volume solubility at room temperature) | Miscibility with solute [13, 22]: Miscible (greater than or equal to 50 percent by volume solubility at room temperature) | Miscibility with solute [13, 23]: Miscible (greater than or equal to 50 percent by volume solubility at room temperature) | percent oil removal ([2]; 23 ° C.): 74.4% | percent oil removal ([2]; 50 ° C.): 96.5% | percent oil removal ([2]; 60 ° C.): 99.8% | Flash point [14]: no flash point | % Removed [4]: 100.0% | HF Generation Rate [8]: 0.33 µg/g/h | % Removed [15]: 96.5%

Molecule: C4F9OC2H5 [Example C4F9OC2H5]
Percent Soil Removed [1]: 100.0% | Miscibility with solute [13, 21]: Miscible (greater than or equal to 50 percent by volume solubility at room temperature) | Miscibility with solute [13, 22]: Miscible (greater than or equal to 50 percent by volume solubility at room temperature) | Miscibility with solute [13, 23]: Miscible (greater than or equal to 50 percent by volume solubility at room temperature) | percent oil removal ([2]; 23 ° C.): 56.0% | percent oil removal ([2]; 50 ° C.): 99.2% | percent oil removal ([2]; 60 ° C.): 100.0% | Flash point [14]: no flash point | Percent Soil Removed [3]: 93.3% | % Removed [4]: 100.0% | Percent Soil Removed [5]: 99.4% | Percent Soil Removed [6]: 97.1% | Percent Soil Removed [16]: 94.28% | HF Generation Rate [8]: 0.22 µg/g/h | % Removed [15]: 99.3% | Percent Soil Removed [7]: 99.0%
